Laboratory results: EPA's ToxRefDB 2

What was measured:
rat [1] = details: Combined chronic toxicity/carcinogenicity, wistar, Oral, Feed, dose end: 120 week, group: systemic
rat [2] = details: Subchronic oral toxicity in rodents, wistar, Feed, dose end: 13 week, group: systemic, systemic / clinical chemistry / alanine aminotransferase (alt/sgpt) / alanine aminotransferase (alt/sgpt) + systemic / clinical chemistry / …
rat [3] = details: Prenatal developmental toxicity study; sprague dawley; Oral; Gavage/Intubation; dose end: 17 GD; group: maternal; systemic / in life observation / body weight / body weight gain + systemic / in life observation / clinical signs / fur (altered appearance…
rabbit = details: Prenatal developmental toxicity study, new zealand white, Oral, Gavage/Intubation, dose end: 19 GD
primate [4] = details: Sub-acute repeat dose toxicity, macaque, Oral, Gavage/Intubation, dose end: 1 month, group: systemic
rat [5] = details: Chronic toxicity, sprague dawley, Oral, Gavage/Intubation, dose end: 6 month, group: systemic
rat [6] = details: Fertility (Segment I), sprague dawley, Oral, Gavage/Intubation, dose end: 7 GD
rat [7] = details: Prenatal developmental toxicity study; sprague dawley; Oral; Gavage/Intubation; dose end: 17 GD; group: maternal; systemic / in life observation / body weight / body weight + systemic / in life observation / body weight / body weight gain + systemic / in…
dog [8] = details: Sub-acute repeat dose toxicity, beagle, Oral, Capsule, dose end: 1 month, group: systemic
rat [9] = details: Sub-acute repeat dose toxicity; sprague dawley; Oral; Gavage/Intubation; dose end: 28 day; group: systemic; systemic / in life observation / body weight / body weight gain + systemic / in life observation / food consumption / food consumption + …
primate [10] = details: Chronic toxicity, macaque, Oral, Gavage/Intubation, dose end: 6 month, group: systemic
mouse [11] = details: Carcinogenicity, cd1, Oral, Feed, dose end: 18 month, group: systemic
dog [12] = details: Subchronic oral toxicity in nonrodent, beagle, Feed, dose end: 14 week, group: systemic
rat [13] = details: Multigenerational reproductive toxicity study, wistar, Oral, Feed, dose end: 2 generation
mouse [14] = details: Subchronic oral toxicity in rodents, cd1, Feed, dose end: 13 week, group: systemic
rat [15] = details: Subchronic oral toxicity in rodents, wistar, Feed, dose end: 14 week, group: systemic
dog [16] = details: Chronic toxicity; beagle; Oral; Feed; dose end: 52 week; group: systemic; systemic / organ weight / adrenal gland / relative to body weight + systemic / organ weight / testes / relative to body weight + systemic / …
rat [17] = details: Sub-acute repeat dose toxicity, Oral, Gavage/Intubation, dose end: 28 day, group: systemic
rat [18] = details: Sub-acute repeat dose toxicity, Oral, Gavage/Intubation, dose end: 7 day, group: systemic
primate [19] = details: Sub-acute repeat dose toxicity; Oral; Gavage/Intubation; dose end: 5 day; group: systemic; systemic / clinical chemistry / aspartate aminotransferase (ast/sgot) / aspartate aminotransferase (ast/sgot) + systemic / clinical …
primate [20] = details: Sub-acute repeat dose toxicity; Oral; Gavage/Intubation; dose end: 5 day; group: systemic; systemic / in life observation / food consumption / food consumption + systemic / in life observation / clinical signs / emesis + systemic…
rat [21] = details: Sub-acute repeat dose toxicity, Oral, Gavage/Intubation, dose end: 7 day, group: systemic; remark: listed apart in the source
rat [22] = details: Sub-acute repeat dose toxicity; Oral; Gavage/Intubation; dose end: 4 day; group: systemic; systemic / in life observation / clinical signs / impaired reflex, nos
[23] = systemic / clinical chemistry / alanine aminotransferase (alt/sgpt) / alanine aminotransferase (alt/sgpt) + systemic / clinical chemistry / …
[24] = systemic / pathology microscopic / liver / basophilic focus
[25] = group: developmental, developmental / developmental malformation / eye / open eye
[26] = group: maternal, systemic / in life observation / body weight / body weight gain + systemic / in life observation / food consumption / food consumption + …
[27] = group: maternal, systemic / pathology gross / pancreas / irregular surface + systemic / pathology gross / pancreas / reduced size
[28] = systemic / in life observation / clinical signs / [other] + systemic / in life observation / clinical signs / defecation (diarrhea) + …
[29] = systemic / in life observation / food consumption / food consumption
[30] = systemic / clinical chemistry / [other] / [other] + systemic / clinical chemistry / phosphorus / phosphate + systemic / clinical chemistry…
[31] = systemic / clinical chemistry / [other] / [other] + systemic / clinical chemistry / phosphorus / phosphate + systemic / in life observation…
[32] = group: maternal, reproductive / reproductive performance / estrous cycle / abnormal
[33] = group: parental, systemic / in life observation / body weight / body weight gain + systemic / in life observation / clinical signs / piloerection + systemic…
[34] = group: parental, systemic / in life observation / body weight / body weight gain + systemic / in life observation / food consumption / food consumption + …
[35] = systemic / clinical chemistry / alanine aminotransferase (alt/sgpt) / alanine aminotransferase (alt/sgpt) + systemic / pathology microscopic…
[36] = systemic / clinical chemistry / alanine aminotransferase (alt/sgpt) / alanine aminotransferase (alt/sgpt)
[37] = systemic / organ weight / adrenal gland / nos + systemic / organ weight / kidney / absolute + systemic / organ weight / kidney / relative to…
[38] = systemic / pathology microscopic / adrenal gland / pigmentation
[39] = systemic / clinical chemistry / alderin epoxidase / alderin epoxidase + systemic / clinical chemistry / ethoxycoumarin deethylase / …
[40] = systemic / organ weight / adrenal gland / relative to body weight + systemic / pathology microscopic / adrenal gland / vacuolization …
[41] = group: offspring, systemic / in life observation / body weight / offspring (pup) weight + systemic / in life observation / body weight / offspring (pup) …
[42] = group: parental, systemic / organ weight / liver / absolute + systemic / organ weight / liver / relative to body weight
[43] = systemic / pathology microscopic / liver / hypertrophy + systemic / pathology microscopic / testes / hypertrophy
[44] = systemic / pathology microscopic / liver / hypertrophy + systemic / pathology microscopic / testes / hypertrophy + systemic / clinical …
[45] = systemic / clinical chemistry / thyroid stimulating hormone (thyrotropin) (tsh) / thyroid stimulating hormone (=thyrotropin) (tsh)
[46] = systemic / hematology / blood clotting / blood clotting - activated partial thromboplastin time + systemic / hematology / blood clotting / …
[47] = systemic / hematology / mean corpuscular hemoglobin (mch) / mean corpuscular hemoglobin (mch) + systemic / hematology / mean corpuscular …
[48] = systemic / hematology / blood clotting / blood clotting - prothrombin time + systemic / organ weight / heart / relative to body weight + …
[49] = systemic / hematology / blood clotting / blood clotting - prothrombin time + systemic / organ weight / liver / absolute + systemic / organ …
[50] = systemic / hematology / blood clotting / blood clotting - prothrombin time + systemic / hematology / lymphocyte / lymphocyte + systemic / in…

## O=C(NC(=O)c1c(F)cccc1F)Nc1cc(Cl)c(F)c(Cl)c1F [Teflubenzuron]
Rat [1]; [23]
  LOAEL: 26 mg/kg/day
  NOAEL: 5.1 mg/kg/day
Rat [1]; [24]
  LEL: 1.3 mg/kg/day
  NEL: < 1.3 mg/kg/day
Rat [2]
  LEL: 81.6 mg/kg/day
  LOAEL: 81.6 mg/kg/day
  NEL: 8 mg/kg/day
  NOAEL: 8 mg/kg/day

## COc1cc(-c2nc(NC(=O)c3cc4cc(C)cc(C)c4n3CC(=O)O)sc2CCC2CCCCC2)c(OC)cc1Cl.O=C(O)C(F)(F)F
Rat [3]
  LEL: 50 mg/kg/day
  LOAEL: > 1000 mg/kg/day
  NEL: < 50 mg/kg/day
  NOAEL: ≥ 1000 mg/kg/day
rabbit; [25]
  LEL: 10 mg/kg/day
  LOAEL: 10 mg/kg/day
  NEL: 3 mg/kg/day
  NOAEL: 3 mg/kg/day
rabbit; [26]
  LOAEL: > 10 mg/kg/day
  NOAEL: ≥ 10 mg/kg/day
rabbit; [27]
  LEL: 0.5 mg/kg/day
  NEL: < 0.5 mg/kg/day
Primate [4]; [28]
  LOAEL: 5 mg/kg/day
  NOAEL: 1 mg/kg/day
Primate [4]; [29]
  LEL: 1 mg/kg/day
  NEL: < 1 mg/kg/day
Rat [5]; [30]
  LOAEL: > 250 mg/kg/day
  NOAEL: ≥ 250 mg/kg/day
Rat [5]; [31]
  LEL: 1 mg/kg/day
  NEL: < 1 mg/kg/day
Rat [6]; [32]
  LEL: 200 mg/kg/day
  LOAEL: > 1000 mg/kg/day
  NEL: 50 mg/kg/day
  NOAEL: ≥ 1000 mg/kg/day
Rat [6]; [33]
  LOAEL: > 1000 mg/kg/day
  NOAEL: ≥ 1000 mg/kg/day
Rat [6]; [34]
  LEL: 50 mg/kg/day
  NEL: < 50 mg/kg/day
Rat [7]
  LEL: 250 mg/kg/day
  LOAEL: > 500 mg/kg/day
  NEL: < 250 mg/kg/day
  NOAEL: ≥ 500 mg/kg/day
Dog [8]; [23]
  LOAEL: > 25 mg/kg/day
  NOAEL: ≥ 25 mg/kg/day
Dog [8]; [35]
  LEL: 1 mg/kg/day
  NEL: < 1 mg/kg/day
Rat [9]
  LEL: 1 mg/kg/day
  LOAEL: > 30 mg/kg/day
  NEL: < 1 mg/kg/day
  NOAEL: ≥ 30 mg/kg/day
Primate [10]; [36]
  LEL: 0.6 mg/kg/day
  NEL: < 0.6 mg/kg/day
Primate [10]; [35]
  LOAEL: 3 mg/kg/day
  NOAEL: 0.6 mg/kg/day

## CCC(C)(C)C(=O)OC1=C(c2ccc(Cl)cc2Cl)C(=O)OC12CCCCC2 [Spirodiclofen]
Mouse [11]; [37]
  LOAEL: 610 mg/kg/day
  NOAEL: 4.1 mg/kg/day
Mouse [11]; [38]
  LEL: 5.1 mg/kg/day
  NEL: < 5.1 mg/kg/day
Dog [12]; [39]
  LEL: 7.7 mg/kg/day
  NEL: < 7.7 mg/kg/day
Dog [12]; [40]
  LOAEL: 8.4 mg/kg/day
  NOAEL: < 8.4 mg/kg/day
Rat [13]; [41]
  LEL: 30.2 mg/kg/day
  LOAEL: 30.2 mg/kg/day
  NEL: 6.4 mg/kg/day
  NOAEL: 6.4 mg/kg/day
Rat [13]; group: parental, systemic / in life observation / body weight / body weight + systemic / organ weight / liver / absolute
  LOAEL: 26.2 mg/kg/day
Rat [13]; group: parental, systemic / in life observation / body weight / body weight + systemic / organ weight / liver / absolute + systemic / in life observation / …
  NOAEL: 5.2 mg/kg/day
Rat [13]; [42]
  LEL: 5.2 mg/kg/day
  NEL: < 5.2 mg/kg/day
Mouse [14]; [43]
  LEL: 164 mg/kg/day
  LOAEL: 164 mg/kg/day
Mouse [14]; [44]
  NEL: 15 mg/kg/day
  NOAEL: 15 mg/kg/day
Rat [15]; [45]
  LEL: 8.1 mg/kg/day
  NEL: < 8.1 mg/kg/day
Rat [15]; systemic / pathology microscopic / adrenal gland / vacuolization cytoplasmic
  LOAEL: 47.1 mg/kg/day
Rat [15]; systemic / pathology microscopic / adrenal gland / vacuolization cytoplasmic + systemic / clinical chemistry / alanine aminotransferase (alt…
  NOAEL: 8.1 mg/kg/day
Dog [16]
  LEL: 4.33 mg/kg/day
  LOAEL: 4.33 mg/kg/day
  NEL: 1.38 mg/kg/day
  NOAEL: 1.38 mg/kg/day

## O=C(CO)N1CCC(c2[nH]nc(-c3ccc(Cl)cc3F)c2-c2ccncn2)CC1
Rat [17]; [46]
  LOAEL: > 2000 mg/kg/day
  NOAEL: ≥ 2000 mg/kg/day
Rat [17]; [47]
  LEL: 20 mg/kg/day
  NEL: < 20 mg/kg/day
Rat [18]; [48]
  LOAEL: > 2000 mg/kg/day
  NOAEL: ≥ 2000 mg/kg/day
Rat [18]; [49]
  LEL: 200 mg/kg/day
  NEL: < 200 mg/kg/day
Primate [19]
  LEL: 600 mg/kg/day
  LOAEL: > 600 mg/kg/day
  NEL: < 600 mg/kg/day
  NOAEL: ≥ 600 mg/kg/day
Primate [20]
  LEL: 600 mg/kg/day
  LOAEL: > 600 mg/kg/day
  NEL: < 600 mg/kg/day
  NOAEL: ≥ 600 mg/kg/day
Rat [21]; [50]
  LOAEL: > 2000 mg/kg/day
  NOAEL: ≥ 2000 mg/kg/day
Rat [21]; [48]
  LEL: 200 mg/kg/day
  NEL: < 200 mg/kg/day
Rat [22]
  LEL: 50 mg/kg/day
  LOAEL: > 2000 mg/kg/day
  NEL: < 50 mg/kg/day
  NOAEL: ≥ 2000 mg/kg/day
